Data: EP1300145A1, “THERAPEUTIC OR […] FOR MOOD DISORDERS OR ANXIETY DISORDERS” (TORAY INDUSTRIES, INC., priority 2000, dated 2002)

Experiments:
male SD rats = assay: elevated plus-maze test in rats (antianxiety effect); assay type: in vivo; settings: subcutaneous; for Time spent on open arms: 30 minutes after administration, 3 minute test, Saline,s.c. 19.1 ± 6.3; for antianxiety effect: overall statement in words
Source text: (§1) The isoquinoline derivative represented by formula (I) has a marked effect in the forced swim test, which is the animal model for mood disorder, and in the elevated plus-maze test, which is the animal model for anxiety disorder. Thus, the isoquinoline derivative can be used as a drug for curing or preventing mood disorder or anxiety disorder of mammal and, in particular, human beings. It may also be used in manufacturing of a medicament for curing or preventing mood disorder or anxiety disorder. The evaluation using the above-described animal models can be conducted by a method described in published references [Nature vol. 266, 730 (1977) or Jpn. J. Psychopharmacol vol. 15, 125 (1995)], but the method is not limited to this.
The experiment was conducted on male SD rats. In the elevated plus-maze test, the elevated plus-maze (manufactured by NeuroScience, Inc.) consisting of closed arms and open arms was used. In the experiment, a rat was placed on an open arm 30 minutes after the drug administration (subcutaneous administration), and the number of entries to the open and closed arms and the time spent in the open arms were measured. The test was conducted for 3 minutes. The rat was assumed to have made entries when all four legs have entered the arm. The ratio of the time spent in the open arms and the ratio of the entries to the open arms were calculated according to the following equations: Ratio of the time spent in the open arms (%) = {(time spent in the open arms)/(total time)} × 100 [formula] Ratio of the entries to the open arms (%) = {(number of entries to the open arms)/(total number of entries)} × 100 [formula]
The vertical axis on the left indicates the ratio of the time spent in the open arms (%) and the ratio of the entries to the open arms (%). The vertical axis on the right indicates the total number of entries. The horizontal axis indicates a control group and treatment groups. Open columns indicate the ratio of the time spent in the open arms (%) and hatched columns indicate the ratio of the entries to the open arms (%). Closed circles indicate the total number of entries. All data are indicated by average ±standard error. In a significance test, the difference was assumed to be significant at a significance level of 5% or less by Dunnett's multiple comparison. In the test, the drug is assumed to have an antianxiety effect when there are an increase in time spent on open arms and an increase in ratio of entries to open arms under administration.
The antianxiety effect of Compounds 3, 5, and 6 was assessed as in Example 1. […]

male ICR mice = assay: forced swim test in mice (antidepressant effect); assay type: in vivo; settings: for Immobility time: Saline,s.c. 136.3 ± 11.4; for antidepressant effect: subcutaneous, overall statement in words
Source text: as §1
In the experiment, male ICR mice were used. In the forced swim test, the tank for forced swim used was a transparent cylindrical tank made of plastic (inner diameter: 10 cm, height: 30 cm), and water at 25°C was contained up to 14 cm in height. A mouse was placed in water, and its swimming time during 2 to 6 minutes after placement was measured. The drug was subcutaneously administered 30 minutes before testing. The vertical axis indicates the swimming time (sec) during the measurement time (4 min). The open column indicates a saline-treated group and the hatched columns indicate Compound 1 treatment groups. All data are indicated by average ±standard error. In a significance test, the difference was assumed to be significant at a significance level of 5% or less by Dunnett's multiple comparison. In the test, the drug is assumed to have an antidepressant effect when there is an increase in swimming time under administration.
The antidepressant effect of Compound 3, 5, and 6 was assessed as in Example 3. […]

[1] = 30 mg/kg, subcutaneous 30 minutes before testing
[2] = Fig. 1, compared with the control group (saline-treated group), Dunnett's multiple comparison

Cc1c2c(nc3ccccc13)C[C@@]1(c3cccc(O)c3)CCN(C)C[C@@H]1C2 (relative stereo) [Compound 3, 2-methyl-4aα-(3-hydroxyphenyl)-11-methyl-1,2,3,4,4a,5,12,12aβ-octahydro-quinolino[2,3-g]isoquinoline] was tested, and the “Time spent on open arms” value (male SD rats; 30 mg/kg) was 36.6 ± 13.2 s, the antianxiety effect (male SD rats) was “significant antianxiety effects” and the “Immobility time” value (male ICR mice; [1]) was 75.4 ± 11.6 s. For the same compound, the antidepressant effect (male ICR mice) was “significant antidepressant effect”.

With Oc1cccc([C@]23CCN(CCc4ccccc4)C[C@@H]2Cc2cc4ccccc4nc2C3)c1 (relative stereo) [Compound 6, 2-phenethyl-4aα-(3-hydroxyphenyl)-1,2,3,4,4a,5,12,12aβ-octahydro-quinolino [2,3-g]isoquinoline] the “Time spent on open arms” value (male SD rats; 30 mg/kg) was 37.9 ± 4.4 s, the antianxiety effect (male SD rats) was “significant antianxiety effects” and the “Immobility time” value (male ICR mice; [1]) was 58.7 ± 9.1 s. For the same compound, the antidepressant effect (male ICR mice) was “significant antidepressant effect”.

With CN1CC[C@]2(c3cccc(O)c3)Cc3nc4ccccc4cc3C[C@@H]2C1 [Compound 1, (4aS,12aS)-2-methyl-4a-(3-hydroxyphenyl)-1,2,3,4,4a,5,12,12a-octahydroquinolino[2,3-g]isoquinoline] the “ratio of the entries to open arms” value (male SD rats; [2]) was “dose-dependent significant increase”, the “time spent in open arms” value (male SD rats; [2]) was “dose-dependent significant increase” and the antianxiety effect (male SD rats) was “confirmed to have an antianxiety effect”. For the same compound, the swimming time (male ICR mice; subcutaneous 30 minutes before testing, 2 to 6 minutes after placement, Fig. 2, compared with the control group (saline-treated group)) was “dose-dependent significant increase” and the antidepressant effect (male ICR mice) was “confirmed to have an antidepressant effect”.

With CN1CC[C@]2(c3cccc(O)c3)Cc3nc4ccccc4c(N)c3C[C@H]2C1 (relative stereo) [Compound 5, 2-methyl-4aα-(3-hydroxyphenyl)-11-amino-1,2,3,4,4a,5,12,12aβ-octahydro-quinolino[2,3-g]isoquinoline] the “Time spent on open arms” value (male SD rats; 10 mg/kg) was 25.4 ± 10.2 s, the antianxiety effect (male SD rats) was “significant antianxiety effects” and the “Immobility time” value (male ICR mice; 10 mg/kg, subcutaneous 30 minutes before testing) was 94.3 ± 13 s. The antidepressant effect (male ICR mice) was “significant antidepressant effect”.
